TGI data for two compounds are collected here from PubChem BioAssay (NCI).

Each structure is given as a SMILES string.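 Step 1: Grow cells in 96-well plates. Step 2: Expose to compound for 48 hours at 5 concentrations. Step 3: Interpolate endpoints linearly; if unreached, use highest concentration. The concentration for full growth arrest is given as TGI.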

Test systems include NCI-H460 lung; OVCAR-5 ovarian; M14 melanoma; MDA-MB-231 breast; HOP-62 NSCLC; SK-MEL-2 melanoma; HCT-116 colon; PC-3 prostate; HT29 colon; NCI-H522 lung; U251 CNS; T-47D breast; KM12 colon; UACC-62 melanoma; OVCAR-4 ovarian.
What all share (assay): NCI-60 cell line screen, 48 h

As for `Cc1cc(C)nc(NS(=O)(=O)c2ccc(Nc3c4ccccc4nc4ccc(C(=O)Nc5ccc(S(N)(=O)=O)cc5)cc34)cc2)n1`, the TGI was greater than 100 µM in the experiment with NCI-H460 lung; greater than 100 µM with OVCAR-5 ovarian; greater than 100 µM in the experiment with M14 melanoma; 52.6 µM with MDA-MB-231 breast; greater than 100 µM in the experiment with HOP-62 NSCLC; greater than 100 µM in the experiment with SK-MEL-2 melanoma. Moreover, the TGI in the experiment on HCT-116 colon, with PC-3 prostate, in the experiment with HT29 colon, in the experiment with NCI-H522 lung, in the experiment with U251 CNS and in the experiment with T-47D breast was greater than 100 µM each time. Also, the TGI with KM12 colon, in the experiment on UACC-62 melanoma and with OVCAR-4 ovarian was greater than 100 µM each time.
With `CCOC(=O)/C=C(\C(=O)OCC)n1cc(C)c(=O)n(Cc2cn(CCCCOC(C)=O)nn2)c1=O`, the TGI in the experiment on NCI-H460 lung came out at 26 µM; in the experiment with OVCAR-5 ovarian, 27.1 µM; in the experiment with M14 melanoma it was 27 µM; in the experiment on MDA-MB-231 breast, 34.6 µM; with HOP-62 NSCLC, 37.4 µM; with SK-MEL-2 melanoma, 36.4 µM. Also, the TGI was 27.6 µM with HCT-116 colon; 36.2 µM in the experiment on PC-3 prostate; 21.1 µM with HT29 colon; 3.01 µM with NCI-H522 lung; 37 µM in the experiment with U251 CNS; greater than 47.5 µM with T-47D breast. Besides, the TGI in the experiment on KM12 colon worked out at 33.3 µM; in the experiment with UACC-62 melanoma it was 29.9 µM; in the experiment with OVCAR-4 ovarian it was 53.1 µM.
